Data taken from patent US12568961B2, “Multi-layer true spherical chitosan encapsulation of absolute (essential) oils for use in pesticidal activity” (GroPro Corporation, priority 2023, dated 2026).
Marks after values point to notes of the source that are not given here.

Key:
[1] = tested on: root-knot nematodes (Meloidogyne spp.); test: nematocidal activity on hatched root-knot nematodes in Petri dish; settings: 15 nematodes
Method: The tomato roots infected with root-knot nematodes were washed with running water and were then cut to a size of about 1 cm, after which 50 g of the cut roots were placed in a 500 ml round-bottom flask containing 200 ml of 0.5% sodium hypochloride (NaOCl), stopped with a rubber stopper, and shaken vigorously for 3 min to sterilize the roots and at the same time burst the egg bag. Thereafter, the solution was passed through a sieve in which 200 mesh was superimposed on 500 mesh, and washed with distilled water, so the eggs of the root-knot nematodes from which the NaOCl solution was removed were recovered.
Next, the eggs of the root-knot nematodes thus recovered were surface-sterilized with 0.5% NaOCl for 10 min, washed thoroughly with sterile distilled water, placed in a phosphate buffer (1%) containing sterilized normal saline, and hatched in an incubator at 25° C.
Thereafter, each mixed solution was diluted to 2000 ppm, 2 to 3 ml thereof was poured into a Petri dish, after which 15 hatched root-knot nematodes were placed in the Petri dish, and nematocidal activity was measured and the results thereof are shown in Table 1 below.
The number of root-knot nematodes used for the experiment on the number of killed root-knot nematodes was 15 at each dilution factor.

[2] = tested on: Black Sigatoka; test: field trials against black Sigatoka in bananas; settings: applied as tank mixes with tea tree oil
Method: Tea tree oil was used in disclosed experiments and trials as an 54 mulsifiable concentrated formulation. For field trials in bananas, tea tree oil was applied similarly to conventional synthetic fungicides, with mineral oil, surfactants, and/or just water. The following fungicides, registered for use against black sigatoka in bananas, were tested for comparison: azoxystrobin (Bankit 25 SC), trifloxystrobin (Flint, Tega 50 WG), difenoconazole (Score, Sico 25 EC), mancozeb (43 SC Duwest 80 WP), flutriafol (Impact, 125 SC) and tridemorph (Calixin 86 OL).

[3] = tested on: multiple insects; test: insecticidal activity on multiple insects (oxymatrine); type: in vivo; settings: used at 500 to 6,000 ppm
[4] = tested on: tomato seedlings; test: phytotoxicity of geraniol, drenching treatment of potted tomato seedlings; type: in vivo; settings: 1 week after treatment; for Extent of phytotoxicity (0-5) / Phytotoxicity symptom: 50 ml drench, tomato
Text: Sterilized soil was uniformly mixed, 300 g thereof was then placed in each pot, and tomato seedlings not infected with root-knot nematodes were transplanted thereto.

[5] = tested on: Ae. aegypti, Culex species mosquitoes, Anopheles species mosquitoes; test: mosquitos and midge adult activity; type: in vivo; settings: used at 500 to 8,000 ppm
[6] = cited from earlier work
[7] = tested on: root-knot nematodes (Meloidogyne spp.); test: nematocidal activity assessment of plant-derived materials in development; settings: geraniol used at 500 to 4,000 ppm

## pyrethrin
[1]; 2000 ppm, 1 day
  number of killed root-knot nematodes: 5
[1]; 2000 ppm, 2 days
  number of killed root-knot nematodes: 6
[1]; 2000 ppm, 3 days
  number of killed root-knot nematodes: 11

## C/C=C(\C)C(=O)O[C@H]1C[C@@H](OC(C)=O)[C@@]2(C(=O)OC)CO[C@H]3[C@@H](O)[C@@](C)([C@]45O[C@@]4(C)[C@H]4C[C@@H]5O[C@@H]5OC=C[C@@]54O)[C@H]4[C@]1(CO[C@]4(O)C(=O)OC)[C@@H]32 [Azadirachtin, azadirachtin]
[1]; 2000 ppm, 1 day
  number of killed root-knot nematodes: 7
[1]; 2000 ppm, 2 days
  number of killed root-knot nematodes: 8
[1]; 2000 ppm, 3 days
  number of killed root-knot nematodes: 10

## CC1COC(Cn2cncn2)(c2ccc(Oc3ccc(Cl)cc3)cc2Cl)O1 (centres unmarked) [difenoconazole]
[2]
  control of Black Sigatoka: effectively controlled

## O=C1CCC[C@@H]2[C@H]3CCC[N+]4([O-])CCC[C@@H](CN12)[C@@H]34 (some centres unmarked) [Oxymatrine, oxymatrine]
[3]
  insecticidal control: superior insecticidal control was demonstrated without plant phytotoxicity

## CC(C)=CCC/C(C)=C/CO [Geraniol, 3,7-dimethyl-2,6-octadien-1-ol]
[4]; drench
  concentrations causing phytotoxicity in tomato seedlings: ≥ 4,000 ppm
  concentrations with no effect on tomato seedlings: ≤ 3,000 ppm
[4]; geraniol 100 ppm
  Extent of phytotoxicity (0-5): 0
  Phytotoxicity symptom: No
[4]; geraniol 200 ppm
  Extent of phytotoxicity (0-5): 0
  Phytotoxicity symptom: No
[4]; geraniol 330 ppm
  Extent of phytotoxicity (0-5): 0
  Phytotoxicity symptom: No
[4]; geraniol 500 ppm
  Extent of phytotoxicity (0-5): 0
  Phytotoxicity symptom: No
[4]; geraniol 1,000 ppm
  Extent of phytotoxicity (0-5): 0
  Phytotoxicity symptom: No
[4]; geraniol 2,000 ppm
  Extent of phytotoxicity (0-5): 0
  Phytotoxicity symptom: No
[4]; geraniol 3,000 ppm
  Extent of phytotoxicity (0-5): 0
  Phytotoxicity symptom: No
[4]; geraniol 4,000 ppm
  Extent of phytotoxicity (0-5): 5
  Phytotoxicity symptom: Withered
[4]; geraniol 5,000 ppm
  Extent of phytotoxicity (0-5): 5
  Phytotoxicity symptom: Withered
[4]; geraniol 10,000 ppm
  Extent of phytotoxicity (0-5): 5
  Phytotoxicity symptom: Withered
[4]; geraniol 20,000 ppm
  Extent of phytotoxicity (0-5): 5
  Phytotoxicity symptom: Withered
[5]
  mosquito and midge control: superior mosquito and midge control was demonstrated without plant phytotoxicity or water toxicology
[6]
  solubility in water: insoluble in water
[1]; 2000 ppm, 1 day
  number of killed root-knot nematodes: 15^a
[1]; geraniol 2,000 ppm, 1 day
  number of killed root-knot nematodes: 15
[7]
  nematocidal control: superior nematocidal control was demonstrated without plant phytotoxicity

## CON=C(C(=O)OC)c1ccccc1CON=C(C)c1cccc(C(F)(F)F)c1 [trifloxystrobin]
[2]
  control of Black Sigatoka: effectively controlled
